According to patent publication US11185517B2, “Pharmaceutical composition for treatment or remission of chronic myelogenous leukemia” (Delta-Fly Pharma, Inc., priority 2016, dated 2021):

Test system: patient with chronic myelogenous leukemia
Assay: Administration of Tasigna (nilotinib) to the patient with chronic myelogenous leukemia
Assay type: in vivo, human
Conditions: CML patient
Protocol: To a patient with chronic myelogenous leukemia, Tasigna (registered trademark) (nilotinib) was administered from Jan. 9, 2014.
The initially administered Tasigna (registered trademark) (nilotinib) had been developed as a therapeutic agent for the transitional stage of chronic myelogenous leukemia from the chronic stage to the acute stage.

In the case of Cc1cn(-c2cc(NC(=O)c3ccc(C)c(Nc4nccc(-c5cccnc5)n4)c3)cc(C(F)(F)F)c2)cn1 [Tasigna, nilotinib], the therapeutic effect (considered at the acute stage) is reported as “no therapeutic effect” and the adverse effects (administration stopped after 5 days) is reported as “strong adverse effects were observed”.
